# Experimental data published in PubChem BioAssay (NCI).
# Several values for one entry are separate records, joined by “and”; a condition that tells them apart may be missing. Equal values may be shown once.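 Values below derive from 48-hour exposures of cells grown in 96-well plates, with endpoints linearly interpolated between the two concentrations bracketing the appropriate inhibition level. GI50 marks 50% less growth. TGI is the concentration that stops growth completely.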
# Tests used:
# Test in all cases: NCI tumour cell line growth inhibition, 48 h
# A498 renal = tested on: A498 renal
# BT-549 breast = tested on: BT-549 breast
# HL-60(TB) leukemia = tested on: HL-60(TB) leukemia
# HOP-62 NSCLC = tested on: HOP-62 NSCLC
# HOP-92 NSCLC = tested on: HOP-92 NSCLC
# IGROV1 ovarian = tested on: IGROV1 ovarian
# SF-268 CNS = tested on: SF-268 CNS
# SK-OV-3 ovarian = tested on: SK-OV-3 ovarian
# CAKI-1 renal = tested on: CAKI-1 renal
Compound,TGI (A498 renal) [µM],TGI (BT-549 breast) [µM],TGI (HL-60(TB) leukemia) [µM],TGI (HOP-62 NSCLC) [µM],TGI (HOP-92 NSCLC) [µM],TGI (IGROV1 ovarian),TGI (SF-268 CNS) [µM],TGI (SK-OV-3 ovarian),TGI (CAKI-1 renal) [µM],GI50 (A498 renal) [µM],GI50 (HL-60(TB) leukemia) [µM],GI50 (HOP-62 NSCLC) [µM],GI50 (SK-OV-3 ovarian) [µM]
COC(=O)C(Cc1c[nH]c2ccccc12)NP(=O)(O)OCC1OC(n2cc(Br)c(=O)[nH]c2=O)CC1O (stereo unspecified),> 100,> 100,> 100,> 100,> 100,> 100 µM,> 100,> 100 µM,–,–,–,–,–
COc1ccc(-c2ncn(C[Si](C)(C)C)c2-c2ccc(OC)cc2)cc1,–,72.3,4.57,30.7,17.5,23.1 µM,28.7,36.9 µM,21.9,–,–,–,–
N#Cc1cc(Sc2ccc(N)c(C#N)c2)ccc1N,> 100,> 100,6.49,> 100,> 100,> 100 µM,59,> 100 µM,–,–,–,–,–
CC(C)C(=O)/C=C/S/C=C/C(=O)C(C)C,–,–,–,86.9,–,45.8 µM,> 100,> 100 µM,10.7,–,–,–,–
COc1c(Br)cc2ccccc2c1-c1c(OC)c(Br)cc2ccccc12,> 100,–,> 100,> 100,> 100,> 100 µM,> 100,> 100 µM,> 100,–,–,–,–
CCN(CC)CC1CN=C(N)O1 (stereo unspecified),> 100,> 100,–,> 100,> 100,> 100 µM,–,–,> 100,–,–,–,–
Cn1c2ccccc2c2cc(N3CCCC3)c3c(c21)C(=O)N(c1ccccc1)C3=O,> 100,> 100,> 100,> 100,–,> 100 µM,> 100,> 100 µM,–,–,–,–,–
COC(=O)CCNc1c2ccccc2nc2cccc([N+](=O)[O-])c12,0.0585,–,0.028,0.00667,–,0.0261 µM and 0.0901 µM,–,0.405 µM and 0.18 µM,–,0.0185,0.00274,0.0015,0.0405
C/C=C(\C)C(=O)O[C@@H]1CC(C)(C)CC2C3=CCC4[C@]56CC[C@](O)(OC5)C(C)(C)C6CC[C@@]4(C)C3(C)CC[C@]21C(=O)O (stereo partly specified),> 100,> 100,> 100,> 100,–,> 100 µM,> 100,> 100 µM,> 100,–,–,–,–
COC(=O)C(Cc1ccc(N(C)C)cc1)(NC(=O)c1ccccc1)P(=O)(OC)OC (stereo unspecified),> 100,–,> 100,> 100,> 100,> 100 µM,> 100,> 100 µM,> 100,–,–,–,–
C=CCOC(OCC=C)/C(Br)=C/C,> 100,–,> 100,> 100,> 100,–,75.2,> 100 µM,> 100,–,–,–,–
Cc1c(Cl)cccc1N=NC(=O)NNc1cccc(Cl)c1C,27.7,27.7,38.1,25.4,–,19.6 µM,31.8,–,–,–,–,–,–
O=C(O)/C(=C\c1ccc(O)cc1)c1cccc2ccccc12,> 100,> 100,–,> 100,> 100,> 100 µM,> 100,–,> 100,–,–,–,–
O=C(c1cccs1)N1CCCN(C(=O)c2cccs2)C1=S,> 100,> 100,> 100,66.2,–,> 100 µM,> 100,> 100 µM,> 100,–,–,–,–
COc1cc(Cc2cnc(N)nc2N)cc(OC)c1OCCCNc1ccc([N+](=O)[O-])cc1,39.3,31.1,–,27.4,36.4,28.3 µM,74,66.6 µM,> 100,–,–,–,–
O=c1[nH]nc(Nc2ccccc2)c2nnn(C3CCCCC3)c12,–,> 100,> 100,> 100,> 100,–,–,–,> 100,–,–,–,–
COC(=O)C1CCC(=O)N1C(c1cc(OC)c(OC)c(OC)c1)c1cccc2ccccc12 (stereo unspecified),> 100,–,> 100,> 100,> 100,> 100 µM,> 100,> 100 µM,–,–,–,–,–
Cc1cc(Nc2ccc(NS(C)(=O)=O)cc2)c2c(ccc3nccc32)[nH]1,43,43.9,–,44.5,65.6,86.3 µM,23,–,96.6,–,–,–,–
NCCCNOCCCN,> 100,–,–,> 100,> 100,–,> 100,> 100 µM,> 100,–,–,–,–
